In the supplement of paper PMC10307832:

Experiments:
Assay in all cases: relative viability (nuclei count vs DMSO), 5 days (fraction); higher = more cells survive
NCI-H2347 = system: NCI-H2347
Procedure, shortened: (§1)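 Five library-drug doses in √10 steps were combined with a fixed anchor-drug dose, or a single drug was given alone, by pin tool to lung cancer cell lines in 1536-well plates the day after seeding. Nuclei were stained and counted after 5 days. Relative viability is the nuclei count in treated wells over that in vehicle wells, taken as the median of duplicate plates.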

NCI-H1651 = system: NCI-H1651
Procedure, shortened: as §1

NCI-H2126 = system: NCI-H2126
Procedure, shortened: as §1

HCC-15 = system: HCC-15
Procedure, shortened: as §1

NCI-H1993 = system: NCI-H1993
Procedure, shortened: as §1

PC-14 = system: PC-14
Procedure, shortened: as §1

HCC-44 = system: HCC-44
Procedure, shortened: as §1

NCI-H1355 = system: NCI-H1355
Procedure, shortened: as §1

NCI-H838 = system: NCI-H838
Procedure, shortened: as §1

SW 1573 = system: SW 1573
Procedure, shortened: as §1

UMC-11 = system: UMC-11
Procedure, shortened: as §1

HOP-62 = system: HOP-62
Procedure, shortened: as §1

LC-2-ad = system: LC-2-ad
Procedure, shortened: as §1

LU99A = system: LU99A
Procedure, shortened: as §1

NCI-H650 = system: NCI-H650
Procedure, shortened: as §1

COR-L23 = system: COR-L23
Procedure, shortened: as §1

ABC-1 = system: ABC-1
Procedure, shortened: as §1

HARA = system: HARA
Procedure, shortened: as §1

EPLC-272H = system: EPLC-272H
Procedure, shortened: as §1

NCI-H1915 = system: NCI-H1915
Procedure, shortened: as §1

NCI-H2085 = system: NCI-H2085
Procedure, shortened: as §1

NCI-H2023 = system: NCI-H2023
Procedure, shortened: as §1

COc1cc2nccc(Oc3ccc(NC(=O)Nc4cc(C)on4)c(Cl)c3)c2cc1OC [Tivozanib] + COc1cccc2cc(-c3nc([C@H]4CC[C@H](C(=O)O)CC4)n4ncnc(N)c34)[nH]c12 [OSI-027] (partner 0.5 µM)
relative viability (NCI-H2347; first compound 0.01581 µM): 0.373 | relative viability (NCI-H2347; first compound 0.05 µM): 0.262 | relative viability (NCI-H2347; first compound 0.5 µM): 0.408 | relative viability (NCI-H1651; first compound 0.005 µM): 0.759 | relative viability (NCI-H1651; first compound 0.01581 µM): 0.721 | relative viability (NCI-H1651; first compound 0.05 µM): 0.737 | relative viability (NCI-H1651; first compound 0.1581 µM): 0.497 | relative viability (NCI-H1651; first compound 0.5 µM): 0.67 | relative viability (NCI-H2126; first compound 0.005 µM): 0.655 | relative viability (NCI-H2126; first compound 0.01581 µM): 0.701 | relative viability (NCI-H2126; first compound 0.05 µM): 0.776 | relative viability (NCI-H2126; first compound 0.5 µM): 0.691 | relative viability (HCC-15; first compound 0.005 µM): 0.547 | relative viability (HCC-15; first compound 0.01581 µM): 0.672 | relative viability (HCC-15; first compound 0.05 µM): 0.711 | relative viability (HCC-15; first compound 0.1581 µM): 0.571 | relative viability (HCC-15; first compound 0.5 µM): 0.61 | relative viability (NCI-H1993; first compound 0.005 µM): 0.503 | relative viability (NCI-H1993; first compound 0.01581 µM): 0.534 | relative viability (NCI-H1993; first compound 0.05 µM): 0.543 | relative viability (NCI-H1993; first compound 0.1581 µM): 0.518 | relative viability (NCI-H1993; first compound 0.5 µM): 0.429 | relative viability (PC-14; first compound 0.005 µM): 0.695 | relative viability (PC-14; first compound 0.01581 µM): 0.928 | relative viability (PC-14; first compound 0.05 µM): 0.83 | relative viability (PC-14; first compound 0.1581 µM): 0.664 | relative viability (PC-14; first compound 0.5 µM): 0.664 | relative viability (HCC-44; first compound 0.005 µM): 0.483 | relative viability (HCC-44; first compound 0.01581 µM): 0.544 | relative viability (HCC-44; first compound 0.05 µM): 0.485 | relative viability (HCC-44; first compound 0.1581 µM): 0.41 | relative viability (HCC-44; first compound 0.5 µM): 0.464 | relative viability (NCI-H1355; first compound 0.005 µM): 0.419 | relative viability (NCI-H1355; first compound 0.01581 µM): 0.48 | relative viability (NCI-H1355; first compound 0.05 µM): 0.475 | relative viability (NCI-H1355; first compound 0.1581 µM): 0.273 | relative viability (NCI-H1355; first compound 0.5 µM): 0.343 | relative viability (NCI-H838; first compound 0.005 µM): 0.364 | relative viability (NCI-H838; first compound 0.01581 µM): 0.404 | relative viability (NCI-H838; first compound 0.05 µM): 0.357 | relative viability (NCI-H838; first compound 0.5 µM): 0.38 | relative viability (SW 1573; first compound 0.005 µM): 0.575 | relative viability (SW 1573; first compound 0.01581 µM): 0.633 | relative viability (SW 1573; first compound 0.05 µM): 0.68 | relative viability (SW 1573; first compound 0.1581 µM): 0.366 | relative viability (SW 1573; first compound 0.5 µM): 0.447 | relative viability (UMC-11; first compound 0.005 µM): 0.491 | relative viability (UMC-11; first compound 0.01581 µM): 0.451 | relative viability (UMC-11; first compound 0.05 µM): 0.536 | relative viability (UMC-11; first compound 0.5 µM): 0.426 | relative viability (HOP-62; first compound 0.005 µM): 0.838 | relative viability (HOP-62; first compound 0.01581 µM): 0.829 | relative viability (HOP-62; first compound 0.05 µM): 0.798 | relative viability (HOP-62; first compound 0.1581 µM): 0.587 | relative viability (HOP-62; first compound 0.5 µM): 0.817 | relative viability (LC-2-ad; first compound 0.005 µM): 0.784 | relative viability (LC-2-ad; first compound 0.01581 µM): 0.834 | relative viability (LC-2-ad; first compound 0.05 µM): 0.812 | relative viability (LC-2-ad; first compound 0.1581 µM): 0.71 | relative viability (LC-2-ad; first compound 0.5 µM): 0.512 | relative viability (LU99A; first compound 0.005 µM): 0.292 | relative viability (LU99A; first compound 0.01581 µM): 0.302 | relative viability (LU99A; first compound 0.05 µM): 0.301 | relative viability (LU99A; first compound 0.1581 µM): 0.268 | relative viability (LU99A; first compound 0.5 µM): 0.238 | relative viability (NCI-H650; first compound 0.005 µM): 0.489 | relative viability (NCI-H650; first compound 0.01581 µM): 0.577 | relative viability (NCI-H650; first compound 0.05 µM): 0.613 | relative viability (NCI-H650; first compound 0.1581 µM): 0.44 | relative viability (NCI-H650; first compound 0.5 µM): 0.398 | relative viability (COR-L23; first compound 0.005 µM): 0.74 | relative viability (COR-L23; first compound 0.01581 µM): 0.715 | relative viability (COR-L23; first compound 0.05 µM): 0.799 | relative viability (COR-L23; first compound 0.1581 µM): 0.617 | relative viability (COR-L23; first compound 0.5 µM): 0.647 | relative viability (ABC-1; first compound 0.005 µM): 0.456 | relative viability (ABC-1; first compound 0.01581 µM): 0.509 | relative viability (ABC-1; first compound 0.05 µM): 0.462 | relative viability (ABC-1; first compound 0.1581 µM): 0.359 | relative viability (ABC-1; first compound 0.5 µM): 0.395 | relative viability (HARA; first compound 0.005 µM): 0.549 | relative viability (HARA; first compound 0.01581 µM): 0.481 | relative viability (HARA; first compound 0.05 µM): 0.65 | relative viability (HARA; first compound 0.1581 µM): 0.196 | relative viability (HARA; first compound 0.5 µM): 0.28 | relative viability (EPLC-272H; first compound 0.005 µM): 0.268 | relative viability (EPLC-272H; first compound 0.01581 µM): 0.318 | relative viability (EPLC-272H; first compound 0.05 µM): 0.299 | relative viability (EPLC-272H; first compound 0.1581 µM): 0.244 | relative viability (EPLC-272H; first compound 0.5 µM): 0.294 | relative viability (NCI-H1915; first compound 0.005 µM): 0.594 | relative viability (NCI-H1915; first compound 0.01581 µM): 0.604 | relative viability (NCI-H1915; first compound 0.05 µM): 0.653 | relative viability (NCI-H1915; first compound 0.1581 µM): 0.523 | relative viability (NCI-H1915; first compound 0.5 µM): 0.49 | relative viability (NCI-H2085; first compound 0.005 µM): 0.757 | relative viability (NCI-H2085; first compound 0.01581 µM): 0.66 | relative viability (NCI-H2085; first compound 0.05 µM): 0.817 | relative viability (NCI-H2085; first compound 0.1581 µM): 0.382 | relative viability (NCI-H2085; first compound 0.5 µM): 0.528 | relative viability (NCI-H2023; first compound 0.005 µM): 0.393 | relative viability (NCI-H2023; first compound 0.01581 µM): 0.386 | relative viability (NCI-H2023; first compound 0.05 µM): 0.381 | relative viability (NCI-H2023; first compound 0.1581 µM): 0.272 | relative viability (NCI-H2023; first compound 0.5 µM): 0.324
